Laboratory results from patent EP3818828A1 (priority 2019, dated 2021).
Several values for one entry are separate records, joined by “and”; a condition that tells them apart may be missing. Equal values may be shown once.

Assays:
[1] = system: Botryosphaeria berengeriana; assay: Ex vivo mycelial growth inhibition, growth rate method; format: cell-based; conditions: 1 mg/mL
Summary of the method: (§1)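 Compounds dissolved in DMSO and tested at 5-7 gradient concentrations in triplicate, with matching DMSO solvent control. A 4 mm mycelial plug from the colony edge was placed centrally on compound-amended PDA and incubated at 22±1.5°C. Colony diameter, measured crosswise after 7 days (10-20 days for some fungi), gave % inhibition versus control.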

[2] = system: Botryosphaeriana berengeriana; assay: as above; format: cell-based; conditions: 1 mg/mL
Summary of the method: as §1

Botrytis cinerea = assay: as above; format: cell-based; conditions: 1 mg/mL
Summary of the method: as §1

C. gossypii = assay: as above; format: cell-based; conditions: 1 mg/mL; for Average Diameter of the Colony: C. gossypii; for inhibition at 1000 µg/mL: Colletotrichum gossypii, C. cossypii, read-out: Inhibition Rate
Summary of the method: as §1

Colletotrichum capsici = assay: as above; format: cell-based; conditions: 1 mg/mL; for inhibition at 1000 µg/mL: Colletotrichum truncatum
Summary of the method: as §1

Coniella diplodiella = assay: as above; format: cell-based; conditions: 1 mg/mL
Summary of the method: as §1

Exserohilum turcicum = assay: as above; format: cell-based; conditions: 1 mg/mL
Summary of the method: as §1

F. oxysporum f. sp. lini = assay: as above; format: cell-based; conditions: 1 mg/mL; for inhibition at 1000 µg/mL: Fusarium oxysporum
Summary of the method: as §1

[3] = system: F. oxysporum f. sp. vasinfectum; assay: as above; format: cell-based; conditions: 1 mg/mL; for inhibition at 1000 µg/mL: Fusarium oxysporum
Summary of the method: as §1

F. verticillioide = assay: as above; format: cell-based; conditions: 1 mg/mL
Summary of the method: as §1

[4] = system: Gaeumannomyces graminis var. graminis and G. graminis var. tritici; assay: as above; format: cell-based; conditions: 1 mg/mL
Summary of the method: as §1

Mycosphaerlla melonis = assay: as above; format: cell-based; conditions: 1 mg/mL
Summary of the method: as §1

Phytophthora capsici = assay: as above; format: cell-based; conditions: for Average Diameter of the Colony / inhibition at 1000 µg/mL: Phytophthora capsici, 1 mg/mL; for antifungal activity against Phytophthora capsici: supplementary determination, compared with hymexazol
Summary of the method: as §1

Pythium aphanidermatum = assay: as above; format: cell-based; conditions: 1 mg/mL
Summary of the method: as §1

Rhizoctonia solani = assay: as above; format: cell-based; conditions: for Average Diameter of the Colony / inhibition at 1000 µg/mL: Rhizoctonia solani, 1 mg/mL
Summary of the method: as §1

Sclerotinia sclerotiorum = assay: as above; format: cell-based; conditions: 1 mg/mL
Summary of the method: as §1

Thanatephorus cucumeris = assay: as above; format: cell-based; conditions: 1 mg/mL
Summary of the method: as §1

Valsa mali = assay: as above; format: cell-based; conditions: 1 mg/mL; for inhibition at 1000 µg/mL: Cytospora mali
Summary of the method: as §1

Fusarium graminearum = assay: microbe, parasite or virus in culture; format: cell-based; conditions: for Average Diameter of the Colony: 1 mg/mL; for inhibition at 1000 µg/mL: read-out: Inhibition Rate
Pythium ultimum = assay: Supplementary ex vivo determination of antifungal activity; format: cell-based; conditions: compared with carbendazim
Experimental: The inhibition of samples for testing on the mycelial growth of plant pathogenic fungi for testing is determined with a growth rate method. 3-(3',4'-methylenedioxy phenyl)-N-n-propyl acrylamide, 3-(3',4'-methylenedioxy phenyl)-piperidine acrylate and five control agents are dissolved with dimethyl sulfoxide (DMSO), then formulated at 5-7 concentrations of different gradients for test following the trial test results, with the same concentration of DMSO as the control solvent, each treatment in triplicate. Fungal cakes with a diameter of 4 mm are taken from the edge of the colony, inoculated into the center of a PDA plate containing different agents of different concentrations and the DMSO control, with one piece of fungal cake inoculated in each plate (with a diameter of […]), and incubated in a constant temperature incubator at a temperature of 22±1.5°C. 7 days later (10-20 days may be needed for some pathogenic fungi), the diameter of the colony is measured with a cross over method according to the mycelial growth profile of the control pathogenic fungi, then the inhibition rate of mycelial growth is calculated.

[5] = system: Erysiphe cucurbitacearum or Sphaerotheca cucurbitae; assay: In-vivo greenhouse control of zucchini powdery mildew
Experimental: 3.88 g of 3-(3',4'-methylenedioxy phenyl)-N-n-propyl acrylamide was weighed and dissolved in 25 g of absolute ethyl alcohol, then 6 g of emulsifier 0203B was added, and mixed uniformly with stirring to get 10% of 3-(3',4'-methylenedioxy phenyl)-N-n-propyl acrylamide EC.
5.61 g of 3-(3',4'-methylenedioxy phenyl)-piperidine acrylate was weighed and dissolved in 25 g of absolute ethyl alcohol, then 6 g of emulsifier 0203B was added, and mixed uniformly with stirring to get 14% of 3-(3',4'-methylenedioxy phenyl)-piperidine acrylate EC.
Zucchini (Variety: Wuwei Xianglin extra-early 1st generation) was cultured in pots in a greenhouse, and inoculated with Erysiphe cucurbitacearum or Sphaerotheca cucurbitae at the stage of 3 to 4 leaves. The first application was started at the early onset (onset at the first true leaf: first appearance of spots), comprising 10% of 3-(3',4'-methylenedioxy phenyl)-N-n-propyl acrylamide EC and 14% of 3-(3',4'-methylenedioxy phenyl)-piperidine acrylate EC, which were both diluted at four concentrations of 0.50, 0.333, 0.25, 0.20 mg/mL (active ingredients), additionally clear water was used as the control. Both sides of the leaves were sprayed evenly with a small hand-held sprayer so that the leaves were wetted by the liquor without loss. Applications were conducted every 7 days consecutively for 4 times. 10 days after the fourth application, the number of sick leaves at each grade of powdery mildew was investigated for the whole plant following the grading standard of 9 grades, to calculate the disease index and the control effect. The computational formula is as below: Disease index = [(Number of sick leaves at each grade×Corresponding grade value)/(Total number of investigated leaves×9)] × 100; [formula] Control effect = (Disease index of the clear water control−Treated disease index)/Disease index of the clear water control × 100. [formula]

[6] = 0.333 mg/mL (active ingredients)
[7] = 0.50 mg/mL (active ingredients), spray every 7 days, 4 times

CCCNC(=O)/C=C/c1ccc2c(c1)OCO2 [3-(3',4'-methylenedioxyphenyl)-N-n-propyl acrylamide]
Average Diameter of the Colony [1]: 3.60 cm
inhibition at 1000 µg/mL [1]: 47.1%
Average Diameter of the Colony [2]: 4.63 cm
inhibition at 1000 µg/mL [2]: 18.8%
Average Diameter of the Colony (Botrytis cinerea): 1.35 cm
inhibition at 1000 µg/mL (Botrytis cinerea): 82%
Average Diameter of the Colony (C. gossypii): 1.74 cm
inhibition at 1000 µg/mL (C. gossypii): 67.8%
Average Diameter of the Colony (Colletotrichum capsici): 1.66 cm
inhibition at 1000 µg/mL (Colletotrichum capsici): 75.5%
Average Diameter of the Colony (Coniella diplodiella): 0.00 cm
inhibition at 1000 µg/mL (Coniella diplodiella): 100%
Average Diameter of the Colony (Exserohilum turcicum): 1.44 cm
inhibition at 1000 µg/mL (Exserohilum turcicum): 76.8%
Average Diameter of the Colony (F. oxysporum f. sp. lini): 6.30 cm
inhibition at 1000 µg/mL (F. oxysporum f. sp. lini): 30%
Average Diameter of the Colony [3]: 3.03 cm
inhibition at 1000 µg/mL [3]: 58.1%
Average Diameter of the Colony (F. verticillioide): 2.94 cm
inhibition at 1000 µg/mL (F. verticillioide): 13%
Average Diameter of the Colony [4]: 3.05 cm
inhibition at 1000 µg/mL [4]: 57.3%
Average Diameter of the Colony (Mycosphaerlla melonis): 0.58 cm
inhibition at 1000 µg/mL (Mycosphaerlla melonis): 93.3%
Average Diameter of the Colony (Phytophthora capsici): 0.65 cm
inhibition at 1000 µg/mL (Phytophthora capsici): 87.7%
antifungal activity against Phytophthora capsici (Phytophthora capsici): superior to that of the control agent, hymexazol
Average Diameter of the Colony (Pythium aphanidermatum): 0.21 cm
inhibition at 1000 µg/mL (Pythium aphanidermatum): 96.9%
Average Diameter of the Colony (Rhizoctonia solani): 0.25 cm
inhibition at 1000 µg/mL (Rhizoctonia solani): 96.5%
Average Diameter of the Colony (Sclerotinia sclerotiorum): 3.28 cm
inhibition at 1000 µg/mL (Sclerotinia sclerotiorum): 61.9%
Average Diameter of the Colony (Thanatephorus cucumeris): 3.51 cm
inhibition at 1000 µg/mL (Thanatephorus cucumeris): 59.2%
Average Diameter of the Colony (Valsa mali): 0.65 cm
inhibition at 1000 µg/mL (Valsa mali): 91.8%
Average Diameter of the Colony (Fusarium graminearum): 2.27 cm
inhibition at 1000 µg/mL (Fusarium graminearum): 57.6%
antifungal activity against Pythium ultimum (Pythium ultimum): superior to that of the control agent, carbendazim
Control Effect [5, 6]: 77.13%
Control Effect [5, 7]: 91.09%

O=C(/C=C/c1ccc2c(c1)OCO2)N1CCCCC1 [3-(3',4'-methylenedioxyphenyl)-piperidine acrylate]
Average Diameter of the Colony [1]: 0.22 cm
inhibition at 1000 µg/mL [1]: 96.8%
Average Diameter of the Colony [2]: 0.14 cm
inhibition at 1000 µg/mL [2]: 97.5%
Average Diameter of the Colony (Botrytis cinerea): 0.25 cm
inhibition at 1000 µg/mL (Botrytis cinerea): 96.7%
Average Diameter of the Colony (C. gossypii): 0.10 cm
inhibition at 1000 µg/mL (C. gossypii): 98.2%
Average Diameter of the Colony (Colletotrichum capsici): 0.28 cm
inhibition at 1000 µg/mL (Colletotrichum capsici): 95.9%
Average Diameter of the Colony (Coniella diplodiella): 0.00 cm
inhibition at 1000 µg/mL (Coniella diplodiella): 100%
Average Diameter of the Colony (Exserohilum turcicum): 0.34 cm
inhibition at 1000 µg/mL (Exserohilum turcicum): 94.5%
Average Diameter of the Colony (F. oxysporum f. sp. lini): 2.73 cm
inhibition at 1000 µg/mL (F. oxysporum f. sp. lini): 69.7%
Average Diameter of the Colony [3]: 0.40 cm
inhibition at 1000 µg/mL [3]: 94.5%
Average Diameter of the Colony (F. verticillioide): 0.49 cm
inhibition at 1000 µg/mL (F. verticillioide): 85.5%
Average Diameter of the Colony [4]: 0.39 cm
inhibition at 1000 µg/mL [4]: 94.5%
Average Diameter of the Colony (Mycosphaerlla melonis): 0.00 cm
inhibition at 1000 µg/mL (Mycosphaerlla melonis): 100%
Average Diameter of the Colony (Phytophthora capsici): 0.00 cm
inhibition at 1000 µg/mL (Phytophthora capsici): 100%
antifungal activity against Phytophthora capsici (Phytophthora capsici): superior to that of the control agent, hymexazol
Average Diameter of the Colony (Pythium aphanidermatum): 0.06 cm
inhibition at 1000 µg/mL (Pythium aphanidermatum): 99.1%
Average Diameter of the Colony (Rhizoctonia solani): 0.00 cm
inhibition at 1000 µg/mL (Rhizoctonia solani): 100%
antifungal activity against Rhizoctonia solani (Rhizoctonia solani; supplementary determination, compared with chlorothalonil, dimethomorph and azoxystrobin): superior to that of chlorothalonil, dimethomorph and azoxystrobin
Average Diameter of the Colony (Sclerotinia sclerotiorum): 0.00 cm
inhibition at 1000 µg/mL (Sclerotinia sclerotiorum): 100%
Average Diameter of the Colony (Thanatephorus cucumeris): 0.00 cm
inhibition at 1000 µg/mL (Thanatephorus cucumeris): 100%
Average Diameter of the Colony (Valsa mali): 0.00 cm
inhibition at 1000 µg/mL (Valsa mali): 100%
Average Diameter of the Colony (Fusarium graminearum): 0.53 cm
inhibition at 1000 µg/mL (Fusarium graminearum): 90.1%
antifungal activity against Pythium ultimum (Pythium ultimum): superior to that of the control agent, carbendazim
Control Effect [5, 6]: 67.06%
Control Effect [5, 7]: 67.06% and 87.13%
